Measured values from patent publication US5945430A, “Aminooxyamide tricyclic inhibitors of farnesyl-protein transferase” (Schering Corporation, priority 1998, dated 1999).

Legend:
[1] = system: Ras processing in COS cells; test: COS IC50, cell-based assay: COS cells activity inhibition of Ras processing
Description: 2. Cell-based assay. COS IC50 values refer to the COS cells activity inhibition of Ras processing, are determined by the methods disclosed in […] or WO 95/10516.

[2] = biological target: T1, H-ras FPT (Ras-CVLS farnesylation by partially purified rat brain farnesyl protein transferase (FPT)) (Rattus norvegicus, UniProt Q02293+Q04631); test: FPT IC50 (inhibition of farnesyl protein transferase, in vitro enzyme assay); assay type: biochemical
T1 construct: partially purified rat brain farnesyl protein transferase (FPT); from tissue; host or cells: rat brain, partially purified

| Compound | IC50 [1] | IC50 [2] |
| --- | --- | --- |
| O=C(CO/N=C/c1cc[n+]([O-])cc1)N1CCC([C@H]2c3ncc(Br)cc3CCc3cc(Cl)cc(Br)c32)CC1 [Example 6] | 690 nM |  |
| NOCC(=O)N1CCC([C@H]2c3ncc(Br)cc3CCc3cc(Cl)cc(Br)c32)CC1 [Example 15, (+)-1-[(aminooxy)acetyl]-4-(3,10-dibromo-8-chloro-6,11-dihydro-5H-benzo[5,6]cyclohepta[1,2-b]pyridin-11(R)-yl)piperidine] |  | 32 nM |
| O=C(NOCC(=O)N1CCC([C@H]2c3ncc(Br)cc3CCc3cc(Cl)cc(Br)c32)CC1)c1ccccc1 [Example 1] |  | 27 nM |
